Source: ChEMBL document CHEMBL5465560, “Selectivity Literature for EUbOPEN Chemogenomic Library” (2024)

Tests used:
[1] = biological target: Rho-associated protein kinase 2 (Homo sapiens, UniProt O75116); experiment: Selectivity interaction (Enzymatic assay) EUB0001199aCl ROCK2
[2] = biological target: Ribosomal protein S6 kinase alpha-3 (Homo sapiens, UniProt P51812); experiment: Selectivity interaction (KinomeScan (DiscoverX)) EUB0000229b RPS6KA3; conditions: at 10 µM
[3] = biological target: T1, Protein kinase C iota type (Homo sapiens) (UniProt P41743); experiment: Selectivity interaction (KinomeScan (DiscoverX)) EUB0000045b PRKCI
T1 sequence (whole entry): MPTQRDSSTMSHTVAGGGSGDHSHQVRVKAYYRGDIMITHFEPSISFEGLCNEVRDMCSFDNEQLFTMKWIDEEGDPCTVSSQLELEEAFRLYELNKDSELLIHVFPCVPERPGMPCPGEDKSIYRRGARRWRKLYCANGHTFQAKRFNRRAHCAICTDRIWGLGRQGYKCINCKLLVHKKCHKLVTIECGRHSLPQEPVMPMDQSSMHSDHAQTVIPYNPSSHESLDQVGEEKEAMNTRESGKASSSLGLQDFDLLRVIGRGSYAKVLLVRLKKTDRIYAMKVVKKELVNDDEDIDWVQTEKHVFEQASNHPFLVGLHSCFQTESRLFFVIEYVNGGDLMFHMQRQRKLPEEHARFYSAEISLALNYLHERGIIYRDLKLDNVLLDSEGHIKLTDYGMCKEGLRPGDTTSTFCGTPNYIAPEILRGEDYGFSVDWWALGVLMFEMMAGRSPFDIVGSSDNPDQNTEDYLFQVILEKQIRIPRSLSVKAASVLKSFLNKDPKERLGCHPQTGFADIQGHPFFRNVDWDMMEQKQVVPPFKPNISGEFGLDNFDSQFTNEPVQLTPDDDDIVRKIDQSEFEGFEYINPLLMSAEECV

[4] = biological target: Serine/threonine-protein kinase MARK1 (Homo sapiens) (UniProt Q9P0L2); experiment: Selectivity interaction (KinomeScan (DiscoverX)) EUB0000618a MARK1; conditions: at 10 µM
Serine/threonine-protein kinase MARK1 (Homo sapiens), sequence (Q9P0L2 whole entry, looked up): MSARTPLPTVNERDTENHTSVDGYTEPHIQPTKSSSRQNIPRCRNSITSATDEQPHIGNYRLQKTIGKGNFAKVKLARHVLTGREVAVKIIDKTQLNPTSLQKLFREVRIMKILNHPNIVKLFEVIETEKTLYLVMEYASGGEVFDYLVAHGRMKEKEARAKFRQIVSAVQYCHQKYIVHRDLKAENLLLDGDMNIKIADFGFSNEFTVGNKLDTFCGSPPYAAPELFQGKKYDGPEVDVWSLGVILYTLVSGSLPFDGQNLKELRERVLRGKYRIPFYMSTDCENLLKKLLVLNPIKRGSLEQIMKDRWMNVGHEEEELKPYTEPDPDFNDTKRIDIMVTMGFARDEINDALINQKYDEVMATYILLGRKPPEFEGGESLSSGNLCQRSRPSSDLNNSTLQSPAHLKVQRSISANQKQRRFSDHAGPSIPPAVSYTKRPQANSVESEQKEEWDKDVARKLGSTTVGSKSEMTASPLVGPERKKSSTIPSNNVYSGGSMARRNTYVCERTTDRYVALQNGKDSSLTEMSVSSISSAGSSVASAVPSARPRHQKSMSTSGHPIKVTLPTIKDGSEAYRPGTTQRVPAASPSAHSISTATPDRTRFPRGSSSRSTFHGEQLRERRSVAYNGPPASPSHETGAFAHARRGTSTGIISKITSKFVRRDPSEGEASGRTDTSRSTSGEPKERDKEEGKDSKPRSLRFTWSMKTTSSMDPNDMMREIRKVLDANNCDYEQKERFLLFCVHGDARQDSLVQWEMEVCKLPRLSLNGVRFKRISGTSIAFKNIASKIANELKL

[5] = biological target: T2, Serine/threonine-protein kinase LATS2 (Homo sapiens) (UniProt Q9NRM7); experiment: Selectivity interaction (KinomeScan (DiscoverX)) EUB0000618a LATS2; conditions: at 10 µM
T2 sequence (whole entry): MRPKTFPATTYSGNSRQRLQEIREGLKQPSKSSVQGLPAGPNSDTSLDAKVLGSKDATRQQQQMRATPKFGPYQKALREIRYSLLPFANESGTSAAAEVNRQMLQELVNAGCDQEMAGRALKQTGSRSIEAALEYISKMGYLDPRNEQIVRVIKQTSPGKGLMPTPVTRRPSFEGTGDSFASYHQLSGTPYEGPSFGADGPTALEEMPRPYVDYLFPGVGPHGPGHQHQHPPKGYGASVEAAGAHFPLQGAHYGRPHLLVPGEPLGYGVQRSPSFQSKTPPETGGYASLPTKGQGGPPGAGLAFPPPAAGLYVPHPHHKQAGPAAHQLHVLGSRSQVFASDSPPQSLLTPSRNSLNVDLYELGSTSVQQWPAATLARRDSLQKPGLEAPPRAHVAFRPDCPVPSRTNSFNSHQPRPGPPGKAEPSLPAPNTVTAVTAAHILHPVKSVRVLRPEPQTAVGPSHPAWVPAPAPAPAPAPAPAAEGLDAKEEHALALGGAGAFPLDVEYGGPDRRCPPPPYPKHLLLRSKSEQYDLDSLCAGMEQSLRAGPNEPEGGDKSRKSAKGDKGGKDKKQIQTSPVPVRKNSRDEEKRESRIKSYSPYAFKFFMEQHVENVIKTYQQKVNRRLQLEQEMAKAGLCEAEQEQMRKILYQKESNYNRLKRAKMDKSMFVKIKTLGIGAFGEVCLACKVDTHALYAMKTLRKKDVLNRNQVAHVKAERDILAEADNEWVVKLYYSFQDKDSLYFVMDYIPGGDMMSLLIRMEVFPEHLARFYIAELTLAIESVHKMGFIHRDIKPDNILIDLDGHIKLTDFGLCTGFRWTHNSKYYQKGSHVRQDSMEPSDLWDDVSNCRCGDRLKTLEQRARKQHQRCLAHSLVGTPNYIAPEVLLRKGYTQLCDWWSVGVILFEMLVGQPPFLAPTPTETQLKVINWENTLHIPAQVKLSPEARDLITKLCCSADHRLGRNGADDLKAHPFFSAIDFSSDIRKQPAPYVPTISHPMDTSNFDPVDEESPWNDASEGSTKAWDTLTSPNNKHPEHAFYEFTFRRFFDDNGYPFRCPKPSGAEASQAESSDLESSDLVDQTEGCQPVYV

[6] = biological target: T3, Ephrin type-A receptor 3 (Homo sapiens) (UniProt P29320); conditions: at 10 µM
T3 sequence (whole entry): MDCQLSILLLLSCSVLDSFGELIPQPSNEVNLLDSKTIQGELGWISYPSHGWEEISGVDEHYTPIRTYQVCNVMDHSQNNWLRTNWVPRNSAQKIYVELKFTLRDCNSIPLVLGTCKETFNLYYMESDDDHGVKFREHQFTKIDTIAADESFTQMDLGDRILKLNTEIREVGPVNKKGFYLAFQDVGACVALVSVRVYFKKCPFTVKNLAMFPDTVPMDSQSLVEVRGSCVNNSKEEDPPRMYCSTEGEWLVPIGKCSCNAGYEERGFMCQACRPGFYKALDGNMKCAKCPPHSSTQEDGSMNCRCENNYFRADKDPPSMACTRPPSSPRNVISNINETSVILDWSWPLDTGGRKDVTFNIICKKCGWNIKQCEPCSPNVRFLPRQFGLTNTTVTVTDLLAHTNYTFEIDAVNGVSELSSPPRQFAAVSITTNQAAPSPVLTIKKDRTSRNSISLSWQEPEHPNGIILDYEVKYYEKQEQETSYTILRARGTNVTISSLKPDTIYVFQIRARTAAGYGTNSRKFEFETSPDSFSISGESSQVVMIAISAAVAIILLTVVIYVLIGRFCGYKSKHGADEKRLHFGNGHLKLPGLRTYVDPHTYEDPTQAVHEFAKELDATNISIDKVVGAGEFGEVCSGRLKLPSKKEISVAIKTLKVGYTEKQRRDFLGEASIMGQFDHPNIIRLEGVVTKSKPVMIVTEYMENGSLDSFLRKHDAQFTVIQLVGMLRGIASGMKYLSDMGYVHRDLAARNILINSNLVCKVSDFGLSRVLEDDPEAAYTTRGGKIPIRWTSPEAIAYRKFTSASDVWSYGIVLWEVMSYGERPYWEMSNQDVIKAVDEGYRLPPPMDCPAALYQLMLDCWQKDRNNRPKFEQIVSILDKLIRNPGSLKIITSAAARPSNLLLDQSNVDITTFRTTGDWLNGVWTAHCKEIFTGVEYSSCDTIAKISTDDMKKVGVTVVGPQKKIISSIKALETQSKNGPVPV

[7] = biological target: RAC-alpha serine/threonine-protein kinase (Homo sapiens, UniProt P31749); experiment: Selectivity interaction (Upstate Kinase Profiler service (Millipore)) EUB0000056c AKT1; conditions: at 1 µM
RAC-alpha serine/threonine-protein kinase, sequence (P31749 whole entry): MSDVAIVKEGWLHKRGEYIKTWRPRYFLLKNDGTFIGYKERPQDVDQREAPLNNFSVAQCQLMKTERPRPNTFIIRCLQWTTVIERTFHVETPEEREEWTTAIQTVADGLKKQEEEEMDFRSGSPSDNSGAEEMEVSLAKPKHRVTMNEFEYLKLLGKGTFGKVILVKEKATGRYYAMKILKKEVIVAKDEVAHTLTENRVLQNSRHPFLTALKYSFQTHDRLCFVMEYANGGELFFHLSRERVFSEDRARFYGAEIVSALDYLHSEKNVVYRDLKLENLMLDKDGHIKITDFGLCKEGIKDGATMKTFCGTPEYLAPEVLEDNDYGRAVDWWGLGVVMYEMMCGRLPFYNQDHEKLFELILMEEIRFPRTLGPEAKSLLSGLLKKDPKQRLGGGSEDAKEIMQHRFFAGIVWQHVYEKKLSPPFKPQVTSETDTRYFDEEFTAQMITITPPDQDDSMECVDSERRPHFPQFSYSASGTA

[8] = biological target: Calcium/calmodulin-dependent protein kinase kinase 2 (Homo sapiens) (UniProt Q96RR4); experiment: Selectivity interaction (KinomeScan (DiscoverX)) EUB0000607a CAMKK2; conditions: at 10 µM
Calcium/calmodulin-dependent protein kinase kinase 2 (Homo sapiens), sequence (Q96RR4 2-588 limits assumed): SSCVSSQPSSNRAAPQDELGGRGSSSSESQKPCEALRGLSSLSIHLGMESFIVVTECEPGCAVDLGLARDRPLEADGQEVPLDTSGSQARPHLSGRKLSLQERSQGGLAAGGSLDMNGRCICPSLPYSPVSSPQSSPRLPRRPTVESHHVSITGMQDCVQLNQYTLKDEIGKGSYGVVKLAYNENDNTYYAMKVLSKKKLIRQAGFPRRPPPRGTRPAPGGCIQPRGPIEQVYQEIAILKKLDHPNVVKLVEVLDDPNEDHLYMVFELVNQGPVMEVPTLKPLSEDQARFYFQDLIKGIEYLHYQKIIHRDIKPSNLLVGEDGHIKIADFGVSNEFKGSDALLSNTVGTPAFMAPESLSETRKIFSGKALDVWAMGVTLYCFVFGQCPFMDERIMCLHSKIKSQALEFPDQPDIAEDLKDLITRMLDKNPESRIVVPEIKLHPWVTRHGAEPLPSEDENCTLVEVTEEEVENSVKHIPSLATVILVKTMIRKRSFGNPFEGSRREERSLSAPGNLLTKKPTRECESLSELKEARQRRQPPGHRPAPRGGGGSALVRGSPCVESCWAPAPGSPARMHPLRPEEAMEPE

Ribosomal protein S6 kinase alpha-3, sequence (P51812 whole entry): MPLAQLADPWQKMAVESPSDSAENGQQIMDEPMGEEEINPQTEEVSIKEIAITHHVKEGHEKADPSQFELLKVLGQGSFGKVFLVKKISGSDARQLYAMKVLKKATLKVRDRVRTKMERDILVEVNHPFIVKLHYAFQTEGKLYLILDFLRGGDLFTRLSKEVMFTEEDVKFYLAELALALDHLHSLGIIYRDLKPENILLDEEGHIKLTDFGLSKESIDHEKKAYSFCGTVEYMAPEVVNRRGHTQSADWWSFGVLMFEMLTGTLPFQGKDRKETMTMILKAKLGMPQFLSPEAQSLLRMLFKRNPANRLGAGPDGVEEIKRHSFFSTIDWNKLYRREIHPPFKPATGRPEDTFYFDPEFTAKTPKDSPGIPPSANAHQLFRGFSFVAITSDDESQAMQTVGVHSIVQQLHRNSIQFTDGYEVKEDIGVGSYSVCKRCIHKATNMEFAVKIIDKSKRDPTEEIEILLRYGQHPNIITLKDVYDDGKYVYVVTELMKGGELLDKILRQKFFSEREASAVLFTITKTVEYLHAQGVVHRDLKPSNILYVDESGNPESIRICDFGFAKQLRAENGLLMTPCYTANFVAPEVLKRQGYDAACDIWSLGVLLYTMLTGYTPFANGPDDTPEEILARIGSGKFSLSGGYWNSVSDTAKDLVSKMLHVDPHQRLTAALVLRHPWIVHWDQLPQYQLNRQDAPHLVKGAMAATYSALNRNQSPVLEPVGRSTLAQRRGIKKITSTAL
Rho-associated protein kinase 2, sequence (O75116 whole entry): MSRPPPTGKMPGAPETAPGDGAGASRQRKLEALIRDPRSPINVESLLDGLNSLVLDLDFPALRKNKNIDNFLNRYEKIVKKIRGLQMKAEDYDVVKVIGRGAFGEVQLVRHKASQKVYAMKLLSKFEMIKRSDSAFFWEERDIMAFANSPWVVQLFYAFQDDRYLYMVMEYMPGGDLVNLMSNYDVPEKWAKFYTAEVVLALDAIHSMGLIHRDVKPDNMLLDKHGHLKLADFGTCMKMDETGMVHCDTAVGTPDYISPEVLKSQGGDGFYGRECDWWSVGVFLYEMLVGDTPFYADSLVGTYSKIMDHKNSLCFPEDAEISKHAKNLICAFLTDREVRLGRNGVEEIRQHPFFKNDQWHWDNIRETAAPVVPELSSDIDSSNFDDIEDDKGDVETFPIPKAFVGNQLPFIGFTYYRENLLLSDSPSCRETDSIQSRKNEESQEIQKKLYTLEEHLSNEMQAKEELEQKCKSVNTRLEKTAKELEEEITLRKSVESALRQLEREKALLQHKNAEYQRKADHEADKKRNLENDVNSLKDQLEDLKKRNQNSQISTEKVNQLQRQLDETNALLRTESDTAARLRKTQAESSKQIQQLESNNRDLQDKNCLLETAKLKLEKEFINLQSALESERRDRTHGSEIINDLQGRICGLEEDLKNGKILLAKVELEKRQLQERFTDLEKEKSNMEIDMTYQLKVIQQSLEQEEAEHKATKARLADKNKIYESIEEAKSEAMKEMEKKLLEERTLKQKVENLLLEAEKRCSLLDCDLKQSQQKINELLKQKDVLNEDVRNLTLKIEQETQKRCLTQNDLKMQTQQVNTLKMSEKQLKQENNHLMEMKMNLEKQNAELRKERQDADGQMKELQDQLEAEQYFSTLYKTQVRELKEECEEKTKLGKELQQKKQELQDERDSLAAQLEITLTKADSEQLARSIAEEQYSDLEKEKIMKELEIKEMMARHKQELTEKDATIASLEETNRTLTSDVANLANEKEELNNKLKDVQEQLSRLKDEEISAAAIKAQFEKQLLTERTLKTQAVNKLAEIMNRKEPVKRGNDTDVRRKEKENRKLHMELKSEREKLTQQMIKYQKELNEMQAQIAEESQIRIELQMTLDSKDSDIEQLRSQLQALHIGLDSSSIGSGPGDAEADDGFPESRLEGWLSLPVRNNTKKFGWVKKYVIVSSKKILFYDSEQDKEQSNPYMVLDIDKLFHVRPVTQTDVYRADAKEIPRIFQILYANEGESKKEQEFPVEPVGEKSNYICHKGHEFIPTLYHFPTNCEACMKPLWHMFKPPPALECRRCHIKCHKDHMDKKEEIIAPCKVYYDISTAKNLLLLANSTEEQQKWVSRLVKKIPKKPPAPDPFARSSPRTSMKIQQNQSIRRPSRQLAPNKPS

CN1Cc2nccc(-c3cn(C)nc3-c3ccc(F)cc3)c2C1=O
IC50 [1]: 10.2 µM

COc1cc(N(C)c2ccnc3ccc(C(F)(F)F)cc23)cc(OC)c1OC
% binding [2]: 71%

C=CC(=O)Nc1cc(-n2c(=O)ccc3cnc4ccc(-c5ccc(NS(C)(=O)=O)cc5)cc4c32)ccc1C
% of control ([3]; at 1 µM): 84%
% of control ([3]; at 10 µM): 64%

O[C@H]1CC[C@H](Nc2ncc3nc(Nc4c(F)cc(F)cc4F)n([C@H]4CCOC4)c3n2)CC1
% of control [4]: 100%
% of control [5]: 88%

Cc1cc([C@@H](C)Nc2ccccc2C(=O)O)c2nc(N3CCOCC3)cc(=O)n2c1 [AZD-6482]
% of control [6]: 79%

Cc1ccc(-c2ccc3c(ccc4sc5c(c43)NC[C@@H](C)NC5=O)n2)cn1
% of inhibition [7]: -3%

CNC(=O)Nc1ccc(-c2nc(N3CC4CCC(C3)O4)c3cnn(C4CCC5(CC4)OCCO5)c3n2)cc1
% of control [8]: 100%
